Measurements taken from paper PMC5640672, “Molecular mechanism of synergy between the antimicrobial peptides PGLa and magainin 2” (Scientific Reports, 2017).
No end group written: not given here.

Assays:
[1] = Fluorescence ANTS/DPX vesicle leakage assay in POPC/POPG (3:1); settings: ANTS/DPX, POPC/POPG (3:1) 100 nm vesicles, P/L about 1:160 per peptide, mixtures 1:1, 10 mM HEPES pH 7.5, 155 mM NaCl, 30 °C, 600 s, % of Triton-X-100 leakage, fluorescence, mean of n = 3
Protocol: The synergy was also investigated by a fluorescence ANTS/DPX leakage assay[24],[27],[30]. As described in the Methods section, leakage from POPC/POPG (3:1) vesicles was measured for 10 minutes after the addition of vesicles to a peptide solution. Leakage is expressed as percentage of the full leakage, which was obtained after addition of detergent. A synergy factor was defined to describe the enhancement of leakage of the mixture compared to the sum of the extent of leakage for each component. […] In general a synergy factor above 2 indicated synergy. […] In the leakage assay, this pore formation can be studied under more controlled conditions. Here we use two lipid compositions for the vesicles, which are mimicking bacterial membranes.
Leakage of small unilamellar vesicles induced by the peptides was studied using a standard fluorescence assay.
The appropriate lipids for each experiment were dissolved in CHCl3, together with 0.02 mol-% Rhodamine-PE (Rh-PE). […] This stock suspension was subjected to 10 freeze-thaw cycles and then frozen. Appropriate aliquots of the stock lipid suspension were unfrozen each day and extruded (41 times) through polycarbonate membranes with 100 nm pore size, and stored at room temperature overnight. The fluorophore and quencher outside the vesicles were removed by size exclusion chromatography using spin-columns (Pierce centrifuge column, 2 ml, Life Technologies GmbH, Darmstadt, Germany) filled with Sephacryl 100-HR (2 min, 1500 × g). For elution, a 10 mM HEPES buffer (pH 7.5) was used, containing 155 mM NaCl to balance the osmolarity. After extrusion and removal of the external dye and quencher, the lipid concentration usually decreases. Therefore, before each set of measurements a rhodamine spectrum was recorded to determine the actual concentration of lipids, which was referenced to a spectrum taken of vesicles made by sonification without any subsequent treatment.
Fluorescence experiments were performed on a FluoroMax2 spectrofluorimeter (HORIBA Jobin Yvon, Unterhaching, Germany) equipped with a thermostated sample holder and magnetic stirrer, using an excitation wavelength of 355 nm, an emission wavelength of 508 nm, and slit widths of 5 nm. The peptide solutions were placed in elution buffer in a 1 cm standard cuvette at 30 °C. 100 s after the start of the measurement lipid vesicles were added, and the intensity of the fluorescence at 508 nm was recorded. The leakage was measured during 600 s after addition of vesicles, and the measurement was terminated after addition of Triton-X-100 (0.25% v/v), which dissolved the vesicles, and yielded 100% leakage. To determine the background signal of the vesicles themselves, several blanks were recorded per measurement set. From the leakage values of the peptides alone and of the mixture of two peptides a synergy factor SF was calculated:3 SF=L(A+B)/[L(A)+L(B)] […] Measurements were repeated three times and average values and standard deviations calculated for the leakage and the synergy factors. An average SF ≥ 2 was taken to indicate synergy.

[2] = test system: E. coli DSM 1103; test: Checker-board assay (FICI); format: cell-based, Escherichia coli; settings: below 0.5 = synergistic activity
Protocol: A suitable method to study synergistic antimicrobial activity is the so-called checker-board assay, described in the Methods section. We performed such experiments on one Gram-negative bacterium, E. coli, and one Gram-positive one, S. aureus. From this method a fractional inhibitory concentration index (FICI) is determined, and when this is below 0.5, the peptides are said to have a synergistic effect against bacteria. This is the biologically relevant effect, but we are here interested in the atomistic details of the interactions behind the effect. Therefore we also use biophysical methods.
The antimicrobial activity of the peptides was investigated with a standard MIC assay[87],[88] on one Gram positive (Staphylococcus aureus, DSM 1104, ATCC 25923) and one Gram negative bacterial strain (Escherichia coli, DSM 1103, ATCC 25922). Bacteria were grown in Müller-Hinton medium (MH) at 37 °C and 220 rpm. Overnight cultures were inoculated from a single colony and grown for approximately 16 h. Day cultures were grown for approximately 3 h until they reached the exponential growth phase. These suspensions were diluted with MH-medium to a concentration of 10^6 colony-forming units (CFU) per ml. The microtiter plates (96 wells of 100 µL) were filled with 50 µL of MH, and serial 2-fold dilutions of each peptide were arranged in triplets along the columns. […] The MIC value was determined visually, as the lowest peptide concentration which inhibited bacterial growth in at least two out of three columns.
To visualize synergy between different peptides, a two-dimensional dilution assay was used[89],[90]. […] From these values, fractional inhibitory concentration indices (FICIs) were calculated with the following formula[89],[91]:1 FICI=[MIC(A)^comb/MIC(A)^alone]+[MIC(B)^comb/MIC(B)^alone] In this formula, MIC(A)^alone is the MIC value determined for peptide A alone, and MIC(A)^comb is the concentration of peptide A at the MIC determined for the combination. […]

[3] = Table S3 series (charge mutants)
[4] = Table S7 series (PGLa-to-MSI mutants)

Substance | Leakage, mean value [1, 3] | FICI in combination with MAG2-WT [2] | Leakage, mean value [1, 4] | Leakage, mean value ([1]; Table S11 series (MSI-to-PGLa mutants))
GIGKFLHSAKKFGKAFVGKIMNS-NH 2 (GIGKFLHSAKKFGKAFVGKIMNS-NH2) [MAG2-E19K-amide, amidated MAG2 E19K mutant] | 2.9% |  |  | 
GIGKFLHSAKKFGKAFVGKIMNS-OH [MAG2-E19K, MAG2 charge mutant E19K] | 4.2% |  |  | 
GMASKAGAIAGKIAKIAGKIA-NH2 [PtM-c1, PGLa to MSI-103 mutant, segment C replaced] |  | below 0.5 | 1.4% | 
GMASKAGKIAGKIAKVALKAL-NH2 (also: 15N-labeled Ala10) [PtM-A8K, PGLa single mutant A8K] |  |  | 2.5% | 
GMASKIGAIAGKIAKVALKAL-NH2 (also: 15N-labeled Ala10) [PtM-A6I, PGLa single mutant A6I] |  |  | 2.0% | 
KIAGKAGAIAGKIAKVALKAL-NH2 [PtM-a2, PGLa to MSI-103 mutant, three amino acids converted] |  | below 0.5 | 2.4% | 
KIAGKIGKIAGKIAKIAGKIA-NH2 [MtP-A7G, MSI-103 to PGLa single mutant A7G] |  | below 0.5 |  | 1.4%
